Experimental data published in publication PMC3130825 (Journal of medicinal chemistry, 2010).
Several values for one entry are separate records, joined by “and”; a condition that tells them apart may be missing. Identical values can stand only once.

Legend:
[1] = system: nicotine-induced antinociception (tail-flick); assay: Block of nicotine-induced antinociception, tail-flick test; assay type: in vivo, mice; settings: for ED50: Mus musculus, read-out: AD50 Tail-flick; for potency relative to 2 in the tail-flick assay: mouse, in vivo
hNET = hNET (Homo sapiens, UniProt P23975); assay: [3H]norepinephrine uptake inhibition in HEK293 cells; assay type: cell-based; settings: for potency relative to 2 as NE uptake inhibitor: better than 2
Sequence of hNET (P23975 whole entry): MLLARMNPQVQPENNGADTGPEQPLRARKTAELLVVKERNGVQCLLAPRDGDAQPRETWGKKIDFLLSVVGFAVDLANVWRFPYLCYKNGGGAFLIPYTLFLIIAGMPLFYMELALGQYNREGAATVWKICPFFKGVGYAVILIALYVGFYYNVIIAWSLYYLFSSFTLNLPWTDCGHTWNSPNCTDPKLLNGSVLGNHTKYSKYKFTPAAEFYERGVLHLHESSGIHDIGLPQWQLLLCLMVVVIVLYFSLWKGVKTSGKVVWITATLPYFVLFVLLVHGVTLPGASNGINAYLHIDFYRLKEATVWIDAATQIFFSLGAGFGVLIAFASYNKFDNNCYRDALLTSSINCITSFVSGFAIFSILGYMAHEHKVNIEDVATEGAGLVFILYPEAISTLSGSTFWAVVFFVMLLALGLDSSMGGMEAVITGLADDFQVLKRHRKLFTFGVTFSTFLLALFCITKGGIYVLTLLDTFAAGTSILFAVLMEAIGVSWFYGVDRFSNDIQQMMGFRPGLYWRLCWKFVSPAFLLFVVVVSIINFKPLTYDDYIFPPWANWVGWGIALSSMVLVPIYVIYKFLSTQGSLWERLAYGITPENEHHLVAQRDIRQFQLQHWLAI

hSERT = hSERT (Homo sapiens, UniProt P31645); assay type: cell-based
Sequence of hSERT (P31645 whole entry): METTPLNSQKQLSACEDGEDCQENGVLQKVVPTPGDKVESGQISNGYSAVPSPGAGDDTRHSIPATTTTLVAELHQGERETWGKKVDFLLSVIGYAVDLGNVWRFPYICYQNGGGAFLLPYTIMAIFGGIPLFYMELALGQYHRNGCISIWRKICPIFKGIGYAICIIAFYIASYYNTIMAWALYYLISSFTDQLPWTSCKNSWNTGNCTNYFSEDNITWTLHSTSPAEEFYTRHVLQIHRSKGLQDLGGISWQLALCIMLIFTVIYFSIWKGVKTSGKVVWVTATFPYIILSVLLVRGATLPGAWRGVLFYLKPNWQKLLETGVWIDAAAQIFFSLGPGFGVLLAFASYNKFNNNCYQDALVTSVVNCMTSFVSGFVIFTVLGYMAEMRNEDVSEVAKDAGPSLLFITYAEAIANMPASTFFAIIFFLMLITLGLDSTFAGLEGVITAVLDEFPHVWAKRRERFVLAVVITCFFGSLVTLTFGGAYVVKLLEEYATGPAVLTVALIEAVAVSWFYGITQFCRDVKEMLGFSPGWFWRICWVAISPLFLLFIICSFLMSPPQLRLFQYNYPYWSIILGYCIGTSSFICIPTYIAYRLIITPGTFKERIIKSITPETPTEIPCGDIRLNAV

[2] = system: nicotine-induced antinociception (hot-plate); assay: Block of nicotine-induced antinociception, hot-plate test; design: species or system mice; settings: mouse, in vivo
[3] = system: nicotine-induced hypothermia; assay: Block of nicotine-induced hypothermia; design: species or system mice; settings: mouse, in vivo
nicotine-induced CPP = assay: Block of development of nicotine conditioned place preference; design: species or system mice; settings: mouse, in vivo
[4] = system: CB-1 cannabinoid receptor; settings: cited from earlier work
locomotor activity = settings: cited from earlier work
[5] = cited from earlier work
α3β4*-nAChR = α3β4*-nAChR (Homo sapiens, UniProt P30926+P32297); assay: 86Rb+ efflux assay, SH-SY5Y cells; assay type: cell-based
Sequence of α3β4*-nAChR (P32297 32-505): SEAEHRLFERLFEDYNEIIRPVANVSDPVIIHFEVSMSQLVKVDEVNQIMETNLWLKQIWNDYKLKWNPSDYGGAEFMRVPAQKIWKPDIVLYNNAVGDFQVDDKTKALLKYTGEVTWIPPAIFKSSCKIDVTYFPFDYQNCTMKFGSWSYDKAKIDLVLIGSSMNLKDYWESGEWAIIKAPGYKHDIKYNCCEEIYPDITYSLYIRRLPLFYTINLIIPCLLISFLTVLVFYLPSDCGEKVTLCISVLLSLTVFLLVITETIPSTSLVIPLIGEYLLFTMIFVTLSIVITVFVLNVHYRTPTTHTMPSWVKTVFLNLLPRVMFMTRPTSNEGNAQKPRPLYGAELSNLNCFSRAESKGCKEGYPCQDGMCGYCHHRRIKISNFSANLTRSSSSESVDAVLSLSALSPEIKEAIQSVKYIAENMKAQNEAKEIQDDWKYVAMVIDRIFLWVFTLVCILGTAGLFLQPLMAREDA
Sequence of α3β4*-nAChR (P30926 22-498): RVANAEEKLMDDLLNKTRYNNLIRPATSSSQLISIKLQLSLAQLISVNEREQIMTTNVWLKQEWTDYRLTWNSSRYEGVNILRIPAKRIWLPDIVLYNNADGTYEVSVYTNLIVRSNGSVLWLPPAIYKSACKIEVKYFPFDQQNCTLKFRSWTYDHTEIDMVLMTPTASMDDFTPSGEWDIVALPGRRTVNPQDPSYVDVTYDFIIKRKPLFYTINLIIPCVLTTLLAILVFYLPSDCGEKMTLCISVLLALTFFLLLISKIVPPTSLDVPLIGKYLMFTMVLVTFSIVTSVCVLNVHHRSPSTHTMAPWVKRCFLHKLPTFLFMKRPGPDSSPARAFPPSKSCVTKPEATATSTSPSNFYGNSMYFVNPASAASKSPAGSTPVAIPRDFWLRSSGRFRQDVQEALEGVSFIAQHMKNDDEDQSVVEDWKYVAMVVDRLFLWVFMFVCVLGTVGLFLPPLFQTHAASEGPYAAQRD

[6] = system: nicotine-induced locomotor effect; assay: Block of nicotine effect on locomotor activity; design: species or system mice; settings: mouse, in vivo

In the case of `CC(NC(C)(C)C)C(=O)c1cccc(Cl)c1` (centres unmarked) [Compound 2, bupropion, reference compound], the ED50 [1] is reported as 1.2 mg/kg.
In the case of `Cc1ccc([C@H]2C[C@@H]3CC[C@H]([C@H]2C(=O)OC(C)C)N3C)cc1` [Compound 4a, 3β-(4-Methylphenyl)tropane-2β-carboxylic acid isopropyl ester], the ED50 [1] is reported as 0.015 mg/kg.
For `Cc1ccc([C@H]2C[C@@H]3CC[C@H]([C@H]2C(=O)OC2CCC2)N3C)cc1` [Compound 4b], the ED50 [1] was 0.28 mg/kg.
With `CCc1cc([C@H]2[C@@H](c3ccc(C)cc3)C[C@@H]3CC[C@H]2N3C)on1` [Compound 4c, 3β-(4-methylphenyl)-2β-(3′-ethylisoxazol-5′-yl)tropane] the “potency relative to 2 as NE uptake inhibitor” value (hNET) was ~ 170 fold, the “potency relative to 2 as 5HT uptake inhibitor” value (hSERT) was “no less than 5 fold” and the ED50 [1] was 0.008 mg/kg. The “potency relative to 2 in the tail-flick assay” value [1] was 150 fold, the “potency relative to 2 in the hot-plate assay” value [2] was 9 fold and the “potency relative to 2 in the hypothermia (body temperature) test” value [3] was “marginally more potent”.
In the case of `Cc1ccc([C@H]2C[C@@H]3CC[C@H]([C@H]2c2cc(-c4ccc(Cl)cc4)no2)N3C)cc1` [Compound 4d], the ED50 [1] is given as over 20 mg/kg, the “potency relative to 2 in the CPP assay” value (nicotine-induced CPP) is given as 27 fold and the “modulation of the CB-1 cannabinoid receptor” value [4] is given as “positive allosteric modulator”. The “locomotor activity in rats” value (locomotor activity) was “did not show locomotor activity” and the “brain levels in in vivo binding studies” value [5] was “appreciable brain levels were achieved”.
With `COc1ccc(-c2cc([C@H]3[C@@H](c4ccc(Cl)cc4)C[C@@H]4CC[C@H]3N4C)on2)cc1` [Compound 4e] the “preference for functional inhibition of α3β4*- over α4β4-nAChR” value (α3β4*-nAChR) was over 56 fold and the ED50 [1] was 0.018 mg/kg.
In the case of `COC(=O)[C@H]1[C@@H](c2ccc(Cl)c(C)c2)C[C@@H]2CC[C@H]1N2C` [Compound 4g, 3β-(4-chlorophenyl-3-methyl)tropane-2β-carboxylic acid methyl ester], the “potency relative to 2 as NE uptake inhibitor” value (hNET) is reported as ~ 2000 fold, the ED50 [1] is reported as 0.21 mg/kg and the “potency relative to 2 in the tail-flick assay” value [1] is reported as 6 fold. For the same compound, the “potency relative to 2 in the hot-plate assay” value [2] was 40 fold, the “potency relative to 2 in the locomotor test” value [6] was 44 fold and the “potency relative to 2 in the hypothermia (body temperature) test” value [3] was 65 fold.
`COC(=O)[C@H]1[C@@H](c2ccc(Cl)c(C)c2)C[C@@H]2CC[C@H]1N2` [Compound 4h, 3β-(4-chloro-3-methylphenyl)nortropane-2β-carboxylic acid methyl ester] gave an ED50 [1] of 0.003 mg/kg.
In the case of `Cc1cc([C@H]2[C@@H](c3ccc(Cl)c(C)c3)C[C@@H]3CC[C@H]2N3C)on1` [Compound 4i, 3β-(4-chloro-3-methylphenyl)-2β-(3′-methylisoxazol-5′-yl)tropane], the “preference for functional inhibition of α3β4*- over α4β2-nAChR” value (α3β4*-nAChR) is reported as 11 fold and 10–13 fold and the ED50 [1] is reported as 0.009 mg/kg.
For `Cc1cc([C@H]2C[C@@H]3CC[C@H]([C@H]2c2cc(-c4ccccc4)no2)N3C)ccc1Cl` [Compound 4j], the “preference for NE over DA uptake inhibition” value (hNET) was “comparable”, the “preference for functional inhibition of α3β4*- over α4β2-nAChR” value (α3β4*-nAChR) was 10–13 fold and the ED50 [1] was 2.5 mg/kg.
Work on `COC(=O)[C@@H]1[C@H]2CC[C@@H](C[C@H]1c1ccc(Cl)c(C)c1)N2C` [Compound 4k, 3α-(4-Chloro-3-methylphenyl)tropane-2β-carboxylic acid Methyl Ester] yielded an ED50 [1] of 0.026 mg/kg.
